Assay results published in ChEMBL document CHEMBL3526084, “Cytochrome P450 dysregulations in thioacetamide-induced liver cirrhosis in rats and the counteracting effects of hepatoprotective agents” (Drug Metab Dispos, 2012).
Active and inactive are the calls of the source. No cut-off for these calls is given here.

Tests used:
Liver microsome [1] = assay: Reversal of thioacetamide-induced CYP2C6 inactivation in rat liver microsomes at 0.2 to 5 mM in presence of NADPH; format: functional
Rattus norvegicus [2] = assay: Hepatoprotective activity in thioacetamide-induced Sprague-Dawley rat liver cirrhosis model assessed as reversal of thioacetamide-induced change in serum AST level at 200 mg/kg administered intragastrically qd for 2 weeks by […]; format: functional, organism-based; parameters: dose 200 mg/kg
Rattus norvegicus [3] = assay: Hepatoprotective activity in thioacetamide-induced Sprague-Dawley rat liver cirrhosis model assessed as downregulation of CYP3A2 protein level at 200 mg/kg administered intragastrically qd for 2 weeks by Western blotting analysis relative to control; format: functional; settings: route intragastric
Liver microsome [4] = assay: Reversal of thioacetamide-induced CYP2C6 inactivation in rat liver microsomes at 2 to 50 uM in presence of NADPH; format: functional
Rattus norvegicus [5] = assay: Upregulation of CYP3A2 in Sprague-Dawley rat liver at 200 mg/kg administered intragastrically qd for 2 weeks by Western blotting analysis; format: ADME, organism-based; parameters: dose 200 mg/kg, route intragastric; settings: in vivo, po, 336 h
Rattus norvegicus [6] = assay: Hepatoprotective activity in thioacetamide-induced Sprague-Dawley rat liver cirrhosis model assessed as downregulation of CYP2E1 protein level at 200 mg/kg administered intragastrically qd for 2 weeks by Western blotting analysis relative to control; format: functional; settings: route intragastric
Liver microsome [7] = assay: Reversal of thioacetamide-induced CYP1A2 inactivation in rat liver microsomes at 2 to 50 uM in presence of NADPH; format: functional
Liver microsome [8] = assay: Reversal of thioacetamide-induced CYP2E1 inactivation in rat liver microsomes at 2 to 50 uM in presence of NADPH; format: functional
Rattus norvegicus [9] = assay: Hepatoprotective activity in thioacetamide-induced Sprague-Dawley rat liver cirrhosis model assessed as reversal of thioacetamide-induced change in serum ALT level at 200 mg/kg administered intragastrically qd for 2 weeks by […]; format: functional, organism-based; parameters: dose 200 mg/kg
Rattus norvegicus [10] = assay: Hepatoprotective activity in thioacetamide-induced Sprague-Dawley rat liver cirrhosis model assessed as reversal of thioacetamide-induced change in serum TBIL level at 200 mg/kg administered intragastrically qd for 2 weeks by […]; format: functional, organism-based; parameters: dose 200 mg/kg
Liver microsome [11] = assay: Reversal of thioacetamide-induced CYP2E1 inactivation in rat liver microsomes at 0.2 to 5 mM in presence of NADPH; format: functional
Rattus norvegicus [12] = assay: Upregulation of CYP2C6 in Sprague-Dawley rat liver at 200 mg/kg administered intragastrically qd for 2 weeks by Western blotting analysis; format: ADME, organism-based; parameters: dose 200 mg/kg, route intragastric; settings: in vivo, po, 336 h
Liver microsome [13] = assay: Reversal of thioacetamide-induced CYP3A2 inactivation in rat liver microsomes at 2 to 50 uM in presence of NADPH; format: functional
Liver microsome [14] = assay: Reversal of thioacetamide-induced CYP1A2 inactivation in rat liver microsomes at 0.2 to 5 mM in presence of NADPH; format: functional
Rattus norvegicus [15] = assay: Hepatoprotective activity in thioacetamide-induced Sprague-Dawley rat liver cirrhosis model assessed as downregulation of CYP2C6 protein level at 200 mg/kg administered intragastrically qd for 2 weeks by Western blotting analysis relative to control; format: functional, organism-based; parameters: dose 200 mg/kg
Liver microsome [16] = assay: Reversal of thioacetamide-induced CYP3A2 inactivation in rat liver microsomes at 0.2 to 5 mM in presence of NADPH; format: functional
Rattus norvegicus [17] = assay: Hepatoprotective activity in thioacetamide-induced Sprague-Dawley rat liver cirrhosis model assessed as downregulation of CYP1A2 protein level at 200 mg/kg administered intragastrically qd for 2 weeks by Western blotting analysis relative to control; format: functional, organism-based; parameters: dose 200 mg/kg
Rattus norvegicus [18] = assay: Downregulation of CYP1A2 in Sprague-Dawley rat liver at 200 mg/kg administered intragastrically qd for 2 weeks by Western blotting analysis; format: ADME, organism-based; parameters: dose 200 mg/kg, route intragastric; settings: in vivo, po, 336 h
Rattus norvegicus [19] = assay: Upregulation of CYP2E1 in Sprague-Dawley rat liver at 200 mg/kg administered intragastrically qd for 2 weeks by Western blotting analysis; format: ADME, organism-based; parameters: dose 200 mg/kg, route intragastric; settings: in vivo, po, 336 h

COC(=O)c1cc(OC)c2c(c1-c1c(C(=O)OC)cc(OC)c3c1OCO3)OCO2 [BIFENDATE]
Activity (Liver microsome [1]): inactive
Activity (Rattus norvegicus [2]): Active
fold change (FC) (Rattus norvegicus [3]): 1.56
Activity (Liver microsome [4]): inactive
Activity (Rattus norvegicus [5]): Active
fold change (FC) (Rattus norvegicus [6]): 2.26
Activity (Liver microsome [7]): inactive
Activity (Liver microsome [8]): inactive
Activity (Rattus norvegicus [9]): Active
Activity (Rattus norvegicus [10]): Active
Activity (Liver microsome [11]): inactive
Activity (Rattus norvegicus [12]): Active
Activity (Liver microsome [13]): inactive
Activity (Liver microsome [14]): inactive
Activity (Rattus norvegicus [15]): Active
Activity (Liver microsome [16]): inactive
Activity (Rattus norvegicus [17]): Active
Activity (Rattus norvegicus [18]): Active
Activity (Rattus norvegicus [19]): Active
